From ChEMBL document CHEMBL1136795, “A computational model of binding thermodynamics: the design of cyclin-dependent kinase 2 inhibitors” (J Med Chem, 2003)

Target: Cyclin-dependent kinase 2 (Homo sapiens, UniProt P24941)
Assay: Inhibition of Cyclin-dependent kinase 2 (CDK2)

IC50: 2100 nM
Compound: CN1CCC(c2c(O)cc(O)c3c(=O)cc(Sc4ccccc4Cl)oc23)C(O)C1 (stereo unspecified)
